Laboratory results: patent publication US20160158317A1, “Antimicrobial Peptide Variants and Polynucleotides Encoding Same” (Adenium Biotech A/S, priority 2010, published 2016)
Like-named read-outs stand apart in the source and are kept apart here. Where a SMILES comes first, the peptide text is derived from it. Bridges are numbered along the chain shown (N, C = ends).

Legend:
[1] = Determination of the protein binding (90% serum, 30 kDa filter, HPLC); format: in vitro ADME
Protocol: Protein binding assays were performed as follows. The purified peptides were mixed with 90% serum and centrifuged through a 30 kDa filter. The ultra-filtrate and the non filtrated serum samples were quantified by HPLC measurements and the protein binding was subsequently calculated.

E. coli ATCC 10536 = assay: Plate assay screening of variants expressed in S. cerevisiae, overlaid with target organism in presence of horse blood or serum; format: cell-based, Escherichia coli; conditions: 2.5% blood, 5% blood or 5% serum
Source text: Several strategies were used for variant generation of the polynucleotide of SEQ ID NO:1. The resulting libraries were cloned and expressed in S. cerevisiae. Transformed clones were screened on a plate assay containing growth media supplemented with 1.5% galactose and 0.5% glucose and either horse blood (2.5-5%) or serum (5%), overlayed with the target organism, E. coli ATCC 10536 (See Raventos et al., 2005, Comb Chem High Throughput Screen. 8:219-33).
Approximately, 300 Saccharomyces cerevisiae colonies expressing arenicin variants were spread on screening plates containing either horse blood (2.5% or 5%) or 5% horse serum (see composition of the plates below). Plates were incubated 3 hours at 30° C. to allow them to dry. Next, 25 ml overlay temperate at 42° C. was added to the plates. After the media had solidified, the plates were incubated 3 days at 30° C.
On day 4, plates were overlayed with pre-warmed media at 42° C. containing either 2.5% or 5% horse blood or 5% horse serum and the target bacteria, E. coli ATCC 10536 (see below for details on media composition). After the overlay solidified, plates were incubated 16 hours at 37° C. Next day, plates were colored by adding 10 ml of 1.5 mM MTT to the plates and incubated at room temperature for 30 minutes. Clones giving rise to clearing zones were picked and sequenced. […]

CC(C)[C@@H]1NC(=O)CNC(=O)[C@H](CC(N)=O)NC(=O)[C@H](CCCNC(=N)N)NC(=O)[C@H](Cc2ccc(O)cc2)NC(=O)[C@H](C(C)C)NC(=O)[C@@H]2CSSC[C@H](NC(=O)[C@H](C(C)C)NC(=O)[C@H](CCCNC(=N)N)NC1=O)C(=O)N[C@@H](Cc1ccc(O)cc1)C(=O)N[C@@H](CCCNC(=N)N)C(=O)N[C@@H](CCCNC(=N)N)C(=O)N[C@H](C(=O)N[C@@H](CC(N)=O)C(=O)O)CSSC[C@H](NC(=O)[C@H](Cc1ccccc1)NC(=O)CN)C(=O)N[C@@H](Cc1c[nH]c3ccccc13)C(=O)N[C@@H](Cc1ccc(O)cc1)C(=O)N[C@@H](C(C)C)C(=O)N2 [SEQ ID NO: 2, reference compound] (H-GFCWYVCVYRNGVRVCYRRCN-OH; disulfide 3-20, 7-16)
fraction unbound ([1]; purified peptide mixed with 90% serum, 30 kDa filter, HPLC, read-out: Protein binding (%) (converted)): 0.005 | antimicrobial activity in plate assay (clearing zones) (E. coli ATCC 10536): fully inhibited

CC(C)[C@@H]1NC(=O)[C@H](CCCNC(=N)N)NC(=O)[C@H](Cc2c[nH]c3ccccc23)NC(=O)[C@@H](NC(=O)[C@H](Cc2ccccc2)NC(=O)CN)CSSC[C@@H](C(=O)N[C@@H](CC(N)=O)C(=O)O)NC(=O)[C@H](CCCNC(=N)N)NC(=O)[C@H](CCCNC(=N)N)NC(=O)[C@H](Cc2ccc(O)cc2)NC(=O)[C@@H]2CSSC[C@H](NC1=O)C(=O)N[C@@H](C)C(=O)N[C@@H](Cc1ccc(O)cc1)C(=O)N[C@@H](CCCCN)C(=O)N[C@@H](CC(N)=O)C(=O)NCC(=O)N[C@@H](CCCCN)C(=O)N[C@@H](CCCNC(=N)N)C(=O)N[C@@H](CO)C(=O)N2 [compound 523] (H-GFCWRVCAYKNGKRSCYRRCN-OH; disulfide 3-20, 7-16 (inferred); N-terminus and C-terminus assumed)
fraction unbound ([1]; serum): 0.1
